Source: the METLIN SMRT retention time set (Domingo-Almenara et al. 2019)

Test: gradient 5% acetonitrile 3 min, to 50% in 2 min, to 85% in 15 min, held 3 min, 100 µL/min
Conditions: column: Zorbax Extend-C18 2.1 x 50 mm; eluents: water / acetonitrile, 0.1% formic acid
Procedure, shortened: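 In both positive and negative ionization mode, a quadrupole time-of-flight mass spectrometer coupled to HPLC analyzed pure standards run in mixtures of ~100 molecules. The Zorbax Extend-C18 column (2.1 × 50 mm, 1.8 μm) was operated at 100 μL/min with water and acetonitrile, each containing 0.1% formic acid. The dead volume was 40 μL and the dwell volume 900 μL. Retention time came from adduct peaks that were computationally picked and individually inspected by hand.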

Row | RP-LC retention time | SMILES
1 | 958 s | COc1cc(NC(=O)c2cc3c(n(-c4ccc(F)cc4)c2=O)CCCC3=O)cc(OC)c1
2 | 772 s | Cc1cc(-c2ccc(S(=O)(=O)N3CCC(C(=O)N4CCCCCC4)CC3)o2)n[nH]1
3 | 838 s | COc1ccc(-c2nc3ccc(Cl)cn3c2Nc2ccc(C)cc2)cc1
4 | 617 s | O=C(O)c1nc(N2CCCC2)c2oc3ccccc3c2n1
5 | 684 s | Cc1ccc(NS(=O)(=O)c2cc3n(c2)CCCN(C)C3=O)c(F)c1
6 | 909 s | CCCc1cc(C2CCCN2C(=O)Cc2ccc(OC)cc2)no1 (centres undefined)
7 | 632 s | Cc1ccc(NC(=O)Nc2c(-c3ccncc3)nc3ccccn23)cc1C
8 | 1120 s | CCOc1ccccc1-c1nn2c(CSc3ccccc3)nnc2s1
9 | 706 s | COc1ccc(C2(C(=O)N3CCCC(c4nnnn4C)C3)CC2)cc1 (centres undefined)
10 | 896 s | CC(C)S(=O)(=O)c1cc2c(cc1NC(=O)c1ccc(C(F)(F)F)cc1)n(C)c(=O)n2C
11 | 800 s | CCc1nnc(NC(=O)CN2C(=O)C3CCCCN3c3ccc(S(=O)(=O)N(C)C)cc32)s1 (centres undefined)
12 | 824 s | CN(C)S(=O)(=O)c1ccc(Oc2ccc(S(=O)(=O)N(C)C)cc2)cc1
13 | 638 s | CCOC(=O)c1noc2ncnc(Nc3ccc(CN4CCN(CC)CC4)cc3)c12
14 | 880 s | CC1CCN(c2cc(-n3cnc(C(=O)N4CCN(c5ncccn5)CC4)c3)ncn2)CC1
15 | 692 s | CO[C@H]1C(=O)N(C(C)C)[C@H]1C1CCN(C(=O)c2ccco2)CC1
16 | 786 s | CCN1c2ccc(F)cc2C(=O)NC12CCN(C(=O)c1cccc(OC)c1)CC2
17 | 799 s | O=C(Nc1ccc(S(=O)(=O)Nc2nccs2)cc1)c1sc2ccccc2c1Cl
18 | 590 s | Cc1cnn(Cc2c(C(=O)N3C[C@@H](C(N)=O)[C@H](c4n[nH]c(C)n4)C3)noc2C)c1
19 | 1080 s | Cc1ccc(Nc2c(-c3cccc(Cl)c3)nc3ccc(Cl)cn23)cc1
20 | 861 s | Cc1cc2c(c(=O)n(-c3ccc(F)cc3)c(=O)n2CC(=O)Nc2cccc(Br)c2)n1C
21 | 670 s | Cc1noc(C2CN(C(=O)NC(C)(C)C)CC23CCOCC3)n1 (centres undefined)
22 | 768 s | Cc1ccc(C)c(NC(=O)C2CC(=O)N(c3ccc4c(c3)CCN4C(=O)C3CC3)C2)c1 (centres undefined)
23 | 542 s | COc1ccc(CN2C[C@@H](CO)[C@H](c3ccncc3)C2)cc1C

Row | RP-LC retention time | SMILES
24 | 623 s | CCOC(=O)c1nc(N2CCN(Cc3ccccc3)CC2)c2ccccc2n1
25 | 1020 s | O=C(NCc1ccccc1)C12CC3CCC(CC(C3)C1)C2
26 | 610 s | CCc1ccc(S(=O)(=O)Nc2ccc3nc(N4CCN(CC)CC4)cc(C(=O)O)c3c2)cc1
27 | 765 s | COc1ccc(CCNC(=O)C2=C3CCCN3c3ccccc3S2(=O)=O)cc1OC
28 | 684 s | CCn1ccc2sc(C)c(C(=O)N3CCCCC3)c2c1=O
29 | 746 s | CCOC(=O)c1[nH]c(C)c(CCC(=O)N2CCCC(C(=O)NC3CCCC3)C2)c1C (centres undefined)
30 | 976 s | COC(=O)c1cccc(C(=O)Nc2cccc(Cl)c2C)n1
31 | 747 s | Cc1ccc(NC(=O)N2CCCC(Cn3cnc4cccnc43)C2)cc1Cl (centres undefined)
32 | 854 s | COc1ccc(-n2cc(C(=O)OCc3ccccn3)c3ccccc3c2=O)cc1
33 | 893 s | O=C(C1CCN(c2nc3ccc(-c4ccsc4)nc3s2)CC1)N1CCCC1
34 | 949 s | CC1Oc2ccc(-c3csc(NC(=O)c4cccs4)n3)cc2N(C)C1=O (centres undefined)
35 | 886 s | COc1ccc(C(=O)N2CCC3(CC2)N=C(c2ccc(Br)cc2)NO3)c(OC)c1
36 | 1040 s | O=C(Cc1csc2nc(-c3cccc(Br)c3)cn12)N1CCc2ccccc21
37 | 846 s | CCN1C(=O)c2cccnc2Sc2cc(CNC(=O)COc3cccc(C)c3)ccc21
38 | 832 s | O=C(NC1CCCCC1)c1cccc2c1CCN2C(=O)C1CC1
39 | 702 s | COc1cc(NC(=O)[C@@H]2COCC(=O)N2Cc2ccc(OC)cc2OC)cc(OC)c1
40 | 800 s | COc1ccc(CCNC(=O)CN2C(=O)CCc3cc(Br)ccc32)cc1OC
41 | 1250 s | CCn1nc2c(S(=O)(=O)N3CCN(c4ccc(F)cc4)CC3)cccn2c1=O
42 | 597 s | CCOc1nccnc1N1CCC(N(C)C(=O)c2ccc(C)nc2)C1 (centres undefined)
43 | 681 s | CCc1cc(=O)n(CC(=O)Nc2ccc3c(c2)OCCO3)c(N2CCOCC2)n1
44 | 821 s | COc1ccc(C(C)NC(=O)C2=C3CCCN3c3ccc(F)cc3S2(=O)=O)cc1OC (centres undefined)
45 | 598 s | O=C(NCCN1CCCC1)c1c2c(nc3ccccc13)C(=O)N(C1CCCCC1)C2
46 | 937 s | CN(C)S(=O)(=O)c1ccc(-c2nnc(C(=O)NCC3CCCCC3)o2)cc1

Row | RP-LC retention time | SMILES
47 | 583 s | CCOC(=O)CCNC(=O)N1CCOc2ccc(N(C)C)cc2C1
48 | 1070 s | Cc1noc(-c2nc(-c3ccc(Cl)cc3)no2)n1
49 | 714 s | COc1ccc(NC(=O)N2CC=C(c3cn(C)c4ncccc34)CC2)cc1OC
50 | 789 s | CC1(C(=O)NCc2ccccc2)Cn2cnc(C(=O)NCc3ccc(Cl)cc3)c2C(=O)N1C1CC1 (centres undefined)
51 | 730 s | O=C(Cc1cccs1)Nc1onc2c1CCCC2
52 | 589 s | COc1ccc2[nH]c(=O)c(CCC(=O)NCCCN3CCCCC3C)cc2c1 (centres undefined)
53 | 887 s | CC(C)CC(=O)N1CCCC1c1nc2ccccc2s1 (centres undefined)
54 | 794 s | CC(C)n1c(N2CCCN(C(=O)c3cccs3)CC2)cc(=O)n(C(C)C)c1=O
55 | 812 s | COC(=O)c1ccccc1S(=O)(=O)N1CCN(Cc2nnnn2-c2ccccc2)CC1
56 | 951 s | COc1ccc(C(=O)Nc2sc3ccccc3c(=O)c2-c2cccs2)cc1OC
57 | 1050 s | Cc1ccc(CNC(=O)c2cnn3c(-c4ccc(Cl)cc4)ccnc23)o1
58 | 654 s | COc1ccccc1OCCNS(=O)(=O)c1cc2n(c1)CCCNC2=O
59 | 624 s | CCOC(=O)c1c(C)c(CCC(=O)NCCN2CCCCC2)n(C)c1C
60 | 618 s | COc1ccc(C2(C(=O)N3CCCC(CN4CCCC4)CC3)CC2)cc1 (centres undefined)
61 | 892 s | Cn1nc(-c2nnc(-c3ccc(F)cc3)o2)c2c1CCN(C(=O)Nc1ccccc1Cl)C2
62 | 680 s | O=C(CSc1ccc(N2CCCC(C(=O)NC3CC3)C2)nn1)Nc1cc(F)cc(F)c1 (centres undefined)
63 | 613 s | CCc1cc(=O)n(CC(=O)Nc2cccc(F)c2)c(N)n1
64 | 784 s | Cc1ccc(C)c2sc(N(C)CC(=O)NCCn3nc(-c4ccco4)ccc3=O)nc12
65 | 874 s | CCc1nc(OCC(=O)Nc2ccc(Br)cc2)c2ccccc2n1
66 | 838 s | CCc1nc2cc(N3CCC(C(=O)NCc4cc(F)cc(F)c4)CC3)cnc2nc1CC
67 | 747 s | Cc1cc2nc(C(=O)NC(C)C)c(=O)n(C)c2cc1C
68 | 1020 s | Cc1ccc(NC(=O)Nc2ccc3c(c2)CCN3S(=O)(=O)c2ccccc2)cc1F
69 | 599 s | CCn1cnnc1C1CCN(C(=O)C2(c3ccc(OC)cc3)CC2)CC1

Row | RP-LC retention time | SMILES
70 | 679 s | CCCn1ccc2sc(C)c(C(=O)NC3CC3)c2c1=O
71 | 889 s | COc1ccc(-c2nnc(N3CCC(C(=O)NCCN4CCOCC4)CC3)o2)cc1
72 | 670 s | COc1ccc(-c2nc(Cn3ccn4nc(-c5ccc(F)cc5)cc4c3=O)c(C)o2)cc1
73 | 1020 s | CCCCOc1ccc(C(=O)Nc2cccc3c2C(=O)NC3=O)cc1
74 | 705 s | CCC1CN2C=NC(N3CCN(S(=O)(=O)c4cc(Cl)ccc4OC)CC3)=CC2=N1 (centres undefined)
75 | 869 s | Cn1cc(-c2cc3n(n2)CCCN3C(=O)CCC(=O)NC2CCCCCC2)c2ccccc21
76 | 556 s | Cc1cc(C)c2c(N3CCCCC3)nc(C(=O)N3CCN(C(C)C)CC3)nc2n1
77 | 651 s | Cc1cc(=O)n(CC(=O)Nc2ccc(F)cc2F)c(N2CCOCC2)n1
78 | 799 s | CCCn1cc(CCNC(=O)Cc2cccc(Cl)c2)c2cccnc21
79 | 689 s | CN(C)C(=O)c1ccc2c(c1)N(CC(=O)N1CCN(c3ccccc3)CC1)C(=O)CO2
80 | 712 s | O=C(NC1CC1)c1nc(Nc2ccc(F)cc2)c2ccccc2n1
81 | 1000 s | COc1ccc(OC)c(CNC(=O)C2CCCN(c3nccnc3Sc3ccccc3)C2)c1 (centres undefined)
82 | 890 s | O=C(NCC(=O)N1CCc2ccccc21)Nc1ccccc1C(F)(F)F
83 | 575 s | CCC(=O)Nc1ccc(S(=O)(=O)N2CCC(N3CCOCC3)CC2)cc1
84 | 496 s | CCCN1CCN(c2ncc3c(n2)CCN(Cc2ccc(CC)cc2)C3)CC1
85 | 726 s | Cn1ncc(N2CCCC(C(=O)NCc3ccc(F)c(Cl)c3)C2)cc1=O (centres undefined)
86 | 933 s | Cc1c(-c2ccnc(N3CCCC3)n2)cnc2nc(-c3ccccc3)nn12
87 | 794 s | CC(C)N1CCn2cc(S(=O)(=O)Nc3ccc(F)c(F)c3)cc2C1=O
88 | 716 s | O=S(=O)(c1ccccc1F)N1CCC(Nc2cccnc2)C1 (centres undefined)
89 | 805 s | Cn1c(=O)c(N2CCC(C(=O)NCc3cccs3)CC2)nc2ccccc21
